This is an account of results in patent publication US20260274861A1, “FUSED RING COMPOUND, PREPARATION METHOD THEREFOR AND MEDICINAL APPLICATION THEREOF” (JIANGSU HENGRUI PHARMACEUTICALS CO., LTD., priority 2022, published 2026).

Holding throughout (type): cell-based
One test has as its system AsPC-1 cells. In words: Inhibition of 3D proliferation of AsPC-1 cells (CellTiter-Glo 3D). The conditions noted are these: Homo sapiens, ASPC1, 120 h, 5 days. Here is the method:
On the first day of the experiment, well-grown AsPC-1 cells with 70%-80% confluency were digested and resuspended in an RPMI 1640 culture medium (Hyclone, SH30809.01) containing 10% FBS, and the cell density was adjusted to the desired level. The cell suspension was added to a U-shaped low-adsorption 96-well plate (Corning, CLS7007-24EA) at 90 μL/well, with a cell density of 1500 cells/well. The cell plate was centrifuged at 2500 rpm for 5 min and then incubated overnight in a 37° C., 5% CO2 incubator. The next day, 20 mM test compounds dissolved in DMSO were diluted to an initial concentration of 2 mM and then serially diluted 5-fold, and a total of 9 concentration points were obtained. Control wells were set using DMSO. The serially diluted compounds were then further diluted 20-fold with a culture medium. The test compounds, diluted with the culture medium, were added to the cell plate at 10 μL/well, with the final concentrations of the compounds being 9 concentration points obtained by 5-fold serial dilution from an initial concentration of 10 μM. Cell wells containing 0.5% DMSO were set as vehicle control wells, and wells containing only the culture medium and 0.5% DMSO were set as blank control wells. A duplicate well was set for each concentration of the compounds and the control wells, with the final concentration of DMSO in each well being 0.5%. The cell plate was centrifuged at 2500 rpm for 3 min and then incubated in a 37° C., 5% CO2 incubator for 5 days. On the seventh day, the 96-well cell culture plate was taken out, and 50 μL of the CellTiter-Glo® Luminescent 3D Cell Viability Assay reagent (Promega, G^9683) was added to each well. The plates were shaken at room temperature in the dark for 25 min. The contents in the wells were pipetted up and down for good uniformity, and then 100 μL of the mixture was transferred from each well to a white impermeable OptiPlate™-96-well plate (PerkinElmer, 6005290). The luminescence signal values were obtained using a multi-mode microplate reader (PerkinElmer, EnVision2105).
The inhibition rate was calculated using the formula: inhibition rate=(luminescence valuevehicle control well−luminescence valuetest compound)/(luminescence valuevehicle control well−luminescence valueblank control well)×100%. Curves were plotted using GraphPad Prism software based on the various concentrations of the compounds and the corresponding inhibition rates, and IC50 values for the compounds were calculated.

The test system of another test is GP2d cells. In words: Inhibition of 3D proliferation of GP2d cells (CellTiter-Glo 3D). The conditions noted are these: 120 h, 5 days. The method, then:
(§1) The inhibitory effects of the compounds of the present disclosure on the KRAS target were evaluated by assessing the inhibitory effects of the compounds of the present disclosure on the 3D proliferation of GP2d and AGS cells.
GP2d cells were cultured in a complete culture medium, namely a DMEM/high glucose culture medium (Hyclone, SH30243.01) containing 10% fetal bovine serum (Corning, 35-076-CV). On the first day of the experiment, the GP2d cells were seeded into a 96-well low-adsorption plate (Corning, CLS7007-24EA) with a complete culture medium at a density of 1000 cells/well, with each well containing 90 μL of a cell suspension. The plate was centrifuged at 2000 rpm for 5 min at room temperature and then incubated overnight in a 37° C., 5% CO2 cell incubator.
(§2) The next day, the test compounds, serially diluted in a complete culture medium, were added at 10 μL/well. The final concentrations of the compounds for GP2d cells were 9 concentration points obtained by 5-fold serial dilution from 1 μM, and the final concentrations of the compounds for AGS cells were 9 concentration points obtained by 5-fold serial dilution from […]. A blank control containing 0.5% DMSO was set for both types of cells. The plates were incubated in a 37° C., 5% CO2 cell incubator for 5 days. On the seventh day, the 96-well cell culture plates were taken out, and 50 μL of the CellTiter-Glo® 3D Cell Viability Assay reagent (Promega, G^9682) was added to each well. The plates were shaken at room temperature in the dark for 25 min. The contents in the wells were pipetted for good uniformity, and 100 μL of the mixture was transferred from each well to a white impermeable 96-well plate (PerkinElmer, 6005290). The luminescence signal values were obtained using a multi-mode microplate reader (PerkinElmer, EnVision2105).

The test system of the next test is AGS cells. In words: Inhibition of 3D proliferation of AGS cells (CellTiter-Glo 3D). The conditions noted are these: Homo sapiens, 120 h, 5 days. Here is the method:
as §1
AGS cells were cultured in a complete culture medium, namely an RPM11640 medium (Hyclone, SH30809.01) containing 10% fetal bovine serum (Corning, 35-076-CV). On the first day of the experiment, the AGS cells were seeded into a 96-well low-adsorption plate (Corning, CLS7007-24EA) with a complete culture medium at a density of 1000 cells/well, with each well containing 90 μL of a cell suspension. The plate was centrifuged at 2000 rpm for 5 min at room temperature and then incubated overnight in a 37° C., 5% CO2 cell incubator.
as §2

Molecules are shown by their SMILES.

With `C[C@@H]1Oc2nc(-c3ccc(F)c4sc(N)c(C#N)c34)c(F)c3nc(OCC4(CN5CCC(=C(F)F)CC5)CC4)nc(c23)N2C[C@H]3CC[C@H](N3)[C@@H]12` [Example 41, 2-Amino-4-((5S,5aS,6S,9R)-12-((1-((4-(difluoromethylene)piperidin-1-yl)methyl)cyclopropyl)methoxy)-1-fluoro-5-methyl-5a,6,7,8,9,10-hexahydro-5H-4-oxa-3,10a,11,13,14-pentaaza-6,9-methanonaphtho[1,8-ab]heptalen-2-yl)-7-fluorobenzo[b]thiophene-3-carbonitrile], the IC50 was determined as 3.7 nM in the test on AsPC-1 cells and 0.4 nM with GP2d cells.
In the test with GP2d cells, `CCc1c(F)ccc2cc(O)cc(-c3nc4c5c(nc(OCC67CCCN6CC(=C(F)F)C7)nc5c3F)N3C[C@H]5CC[C@H](N5)[C@H]3[C@H](C)O4)c12` (stereo partly drawn) [Example 18, 4-((5S,5aS,6S,9R)-12-((2-(Difluoromethylene)tetrahydro-1H-pyrrolizin-7a(5H)-yl)methoxy)-1-fluoro-5-methyl-5a,6,7,8,9,10-hexahydro-5H-4-oxa-3,10a,11,13,14-pentaaza-6,9-methanonaphtho[1,8-ab]heptalen-2-yl)-5-ethyl-6-fluoronaphthalen-2-ol] gave an IC50 of 1.2 nM.
Take `Cc1nc(N)cc(-c2nc3c4c(nc(OCC5(CN6CCC(=CF)CC6)CC5)nc4c2F)N2C[C@H]4CC[C@H](N4)[C@H]2[C@H](C)O3)c1C(F)(F)F` [Example 42, 4-((5S,5aS,6S,9R)-1-Fluoro-12-((1-((4-(fluoromethylene)piperidin-1-yl)methyl)cyclopropyl)methoxy)-5-methyl-5a,6,7,8,9,10-hexahydro-5H-4-oxa-3,10a,11,13,14-pentaaza-6,9-methanonaphtho[1,8-ab]heptalen-2-yl)-6-methyl-5-(trifluoromethyl)pyridin-2-amine]: the concentration for half-maximal inhibition (IC50) in the test with AGS cells was found to be 5.2 nM; in the test with AsPC-1 cells, 1.8 nM; in the test on GP2d cells, 0.21 nM.
As for `C[C@@H]1Oc2nc(-c3cc(N)cc(Cl)c3C(F)(F)F)c(F)c3nc(OCC4(CN5CCC(=CF)CC5)CC4)nc(c23)N2C[C@H]3CC[C@H](N3)[C@@H]12` [Example 36, 3-Chloro-5-((5S,5aS,6S,9R)-1-fluoro-12-((1-((4-(fluoromethylene)piperidin-1-yl)methyl)cyclopropyl)methoxy)-5-methyl-5a,6,7,8,9,10-hexahydro-5H-4-oxa-3,10a,11,13,14-pentaaza-6,9-methanonaphtho[1,8-ab]heptalen-2-yl)-4-(trifluoromethyl)aniline], the IC50 in the test with AGS cells was 0.9 nM; with AsPC-1 cells it was 0.2 nM; in the test with GP2d cells, 0.06 nM.
As to `CCc1c(F)ccc2cc(O)cc(-c3nc4c5c(nc(OCC6(CN7CC8CC(=C(F)F)CC8C7)CC6)nc5c3F)N3C[C@H]5CC[C@H](N5)[C@H]3[C@H](C)O4)c12` (stereo partly drawn) [Example 14], the 50% inhibitory concentration (IC50) with GP2d cells worked out at 1.6 nM.
On to `CCc1c(F)ccc2cc(O)cc(-c3nc4c5c(nc(OCC6(CN7CCC(=CF)CC7)CC6)nc5c3F)N3C[C@H]5CC[C@H](N5)[C@H]3[C@H](C)O4)c12` [Example 23, 5-Ethyl-6-fluoro-4-((5S,5aS,6S,9R)-1-fluoro-12-((1-((4-(fluoromethylene)piperidin-1-yl)methyl)cyclopropyl)methoxy)-5-methyl-5a,6,7,8,9,10-hexahydro-5H-4-oxa-3,10a,11,13,14-pentaaza-6,9-methanonaphtho[1,8-ab]heptalen-2-yl)naphthalen-2-ol], for which the values for the IC50 in the test with AsPC-1 cells and with GP2d cells were 7.9 nM and 0.2 nM, respectively.
`C=C1CN2CC(=C)CC2(COc2nc3c4c(nc(-c5cc(O)cc6ccc(F)c(CC)c56)c(F)c4n2)O[C@@H](C)[C@@H]2[C@@H]4CC[C@H](CN32)N4)C1` [Example 17, 4-((5S,5aS,6S,9R)-12-((2,6-Dimethylenetetrahydro-1H-pyrrolizin-7a(5H)-yl)methoxy)-1-fluoro-5-methyl-5a,6,7,8,9,10-hexahydro-5H-4-oxa-3,10a,11,13,14-pentaaza-6,9-methanonaphtho[1,8-ab]heptalen-2-yl)-5-ethyl-6-fluoronaphthalen-2-ol] registered an IC50 in the test with GP2d cells of 0.9 nM.
Take `CCc1c(F)ccc2cc(O)cc(-c3nc4c5c(nc(OCC6(CN7CCOCC7)CC6)nc5c3F)N3C[C@H]5CC[C@H](N5)[C@H]3[C@H](C)O4)c12` [Example 5, 5-Ethyl-6-fluoro-4-((5S,5aS,6S,9R)-1-fluoro-5-methyl-12-((1-(morpholinomethyl)cyclopropyl)methoxy)-5a,6,7,8,9,10-hexahydro-5H-4-oxa-3,10a,11,13,14-pentaaza-6,9-methanonaphtho[1,8-ab]heptalen-2-yl)naphthalen-2-ol]: the IC50 in the test on AGS cells was 8.7 nM; with AsPC-1 cells, 5.7 nM; in the test with GP2d cells it was 0.9 nM.
In the test with GP2d cells, `Cc1cc(N)c(F)c(-c2nc3c4c(nc(OCC5(CN6CCC(=C(F)F)CC6)CC5)nc4c2F)N2C[C@H]4CC[C@H](N4)[C@H]2[C@H](C)O3)c1C(F)(F)F` [Example 40, 3-((5S,5aS,6S,9R)-12-((1-((4-(Difluoromethylene)piperidin-1-yl)methyl)cyclopropyl)methoxy)-1-fluoro-5-methyl-5a,6,7,8,9,10-hexahydro-5H-4-oxa-3,10a,11,13,14-pentaaza-6,9-methanonaphtho[1,8-ab]heptalen-2-yl)-2-fluoro-5-methyl-4-(trifluoromethyl)aniline] came in with an IC50 of 0.6 nM.
On the same count and under the same terms, for `CCc1c(F)ccc2cc(O)cc(-c3nc4c5c(nc(OCC6(CN7CC/C(=C\F)C7)CC6)nc5c3F)N3C[C@H]5CC[C@H](N5)[C@H]3[C@H](C)O4)c12` [Example 11, 5-Ethyl-6-fluoro-4-((5S,5aS,6S,9R)-1-fluoro-12-((1-(((E)-3-(fluoromethylene)pyrrolidin-1-yl)methyl)cyclopropyl)methoxy)-5-methyl-5a,6,7,8,9,10-hexahydro-5H-4-oxa-3,10a,11,13,14-pentaaza-6,9-methanonaphtho[1,8-ab]heptalen-2-yl)naphthalen-2-ol] the value was 0.7 nM.
As for `Cc1cc(N)c(F)c(-c2nc3c4c(nc(OCC5(CN6CCC(=CF)CC6)CC5)nc4c2F)N2C[C@H]4CC[C@H](N4)[C@H]2[C@H](C)O3)c1C(F)(F)F` [Example 38, 2-Fluoro-3-((5S,5aS,6S,9R)-1-fluoro-12-((1-((4-(fluoromethylene)piperidin-1-yl)methyl)cyclopropyl)methoxy)-5-methyl-5a,6,7,8,9,10-hexahydro-5H-4-oxa-3,10a,11,13,14-pentaaza-6,9-methanonaphtho[1,8-ab]heptalen-2-yl)-5-methyl-4-(trifluoromethyl)aniline], the IC50 is 5 nM in the test with AGS cells, 1.7 nM in the test with AsPC-1 cells and 0.07 nM in the test on GP2d cells.
